Patent publication US20200002670A1, “Generation of Endocrine Progenitor Cells from Human Pluripotent Stem Cells Using Small Molecules” (Novo Nordisk A/S, priority 2013, published 2020)

Assays:
Type in all cases: cell-based, human
[1] = test system: pancreatic endoderm cells; experiment: NGN3/NKX2.2 double positive cells by immunostaining and InCell imaging after PE to EP differentiation
Procedure: After three days of EP differentiation, at EP day 4, media were aspirated followed by fixation of the cells at room temperature for 30 min with 4% paraformaldehyde (VWR, 97.131.000). Cells were washed with PBS and permeabilized with 0.5% Triton X-100 (Sigma, 9002-93-1) for 10 min, washed and blocked in 0.5% TNB-buffer (Perkin Elmer) for 30 min at room temperature. Primary antibodies, sheep anti-NGN3 (R&D systems #AF3444) and rabbit anti-NKX2.2 (Sigma #HPA003468) were diluted 1:1000 and 1:500, respectively, in 0.1% Triton X-100 in PBS and added to each well for overnight incubation at 4° C. Cells were washed three times with PBS. DAPI (4′,6-diamidino-2-phenylindole, Applichem, A4099.0010) and secondary antibodies, Alexa Fluor 488 donkey anti-goat and Alexa Fluor 594 donkey anti-rabbit (both Invitrogen) were diluted 1:1000 in 0.1% Triton X-100 in PBS and added to each well for 45 min. Cells were washed five times and left in 200 μL PBS for imaging. Imaging was performed using the InCell Analyzer 2000 (GE Healthcare). 4 fields per well with 10× objective were captured. The total cell number based in the DAPI counterstaining and the number of NGN3/NKX2.2 double positive cells was determined using InCell Developer Toolbox 1.8 (GE Healthcare). The fraction of NGN3/NKX2.2 double positive cells were quantified using the InCell developer toolbox software (GE Healthcare) and normalized to the combined protocol K&N (example 2) on each plate and the % effect was calculated (% effect NGN3/NKX2.2 double positive=((S−Sneg)/(|Spos−Sneg|))*100). Wherein S is % NGN3/NKX2.2 double positive cells for a given compound combination, Sneg and Spos are % NGN3/NKX2.2 double positive cells for the negative control and combined protocol K&N, respectively).
An EP cell population was prepared according to examples 1 and 2. However, in addition to the reagents used in example 2 the small molecules listed in table 3 were added for three days at concentrations specified in table 3 below in concentrations as shown. After three days of EP differentiation media were aspirated followed by fixation of the cells at room temperature for 30 min with 4% paraformaldehyde (VWR, 97.131.000). Cells were washed with PBS and permeabilized with 0.5% Triton X-100 (Sigma, 9002-93-1) for 10 min, washed and blocked in 0.5% TNB-buffer (Perkin Elmer) for 30 min at room temperature. Primary antibodies, sheep anti-NGN3 (R&D systems #AF3444) and rabbit anti-NKX2.2 (Sigma #HPA003468) were diluted 1:1000 and 1:500, respectively, in 0.1% Triton X-100 in PBS and added to each well for overnight incubation at 4° C. Cells were washed three times with PBS. DAPI (4′,6-diamidino-2-phenylindole, Applichem, A4099.0010) and secondary antibodies, Alexa Fluor 488 donkey anti-goat and Alexa Fluor 594 donkey anti-rabbit (both Invitrogen) were diluted 1:1000 in 0.1% Triton X-100 in PBS and added to each well for 45 min. Cells were washed five times and left in 200 μL PBS for imaging.
Imaging was performed using the InCell Analyzer 2000 (GE Healthcare). 4 fields per well with 10× objective were captured. The total cell number based in the DAPI counterstaining and the number of NGN3/NKX2,2 double positive cells was determined using InCell Developer Toolbox 1.8 (GE Healthcare). The fraction of NGN3/NKX2.2 double positive cells were quantified using the InCell developer toolbox software (GE Healthcare) and normalized to the combined protocol K&N on each plate and the % effect was calculated (% effect NGN3/NKX2.2 double positive=((S−Sneg)/(|Spos−Sneg|))*100). Wherein S is % NGN3/NKX2.2 double positive cells for a given compound combination, Sneg and Spos are % NGN3/NKX2.2 double positive cells for the negative control and combined protocol K&N, respectively).

[2] = test system: SA121 (hES) derived pancreatic endoderm cells; experiment: NGN3/NKX2.2 double positive cells by imaging, small molecule combinations, SA121 (hES); conditions: Method of example 2 + 2.5 μM DAPT
Procedure: (§1) An EP cell population was prepared according to example 2. However, in addition to the reagents used in example 2, certain small molecules listed in table 3 were added either alone or in combination during the three days of EP differentiation. After three days of EP differentiation media were aspirated followed by fixation of the cells at room temperature for 30 min with 4% paraformaldehyde (VWR, 97.131.000). Cells were washed with PBS and permeabilized with 0.5% Triton X-100 (Sigma, 9002-93-1) for 10 min, washed and blocked in 0.5% TNB-buffer (Perkin Elmer) for 30 min at room temperature. […] Cells were washed three times with PBS. DAPI (4',6-diamidino-2-phenylindole, Applichem, […]10) and secondary antibodies, Alexa Fluor 488 donkey anti-goat and Alexa Fluor 594 donkey anti-rabbit (both Invitrogen) were diluted 1:1000 in 0.1% Triton X-100 in PBS and added to each well for 45 min. Cells were washed five times and left in 200 μL PBS for imaging. Imaging was performed using the InCell Analyzer 2000 (GE Healthcare). 4 fields per well with 10× objective were captured.

[3] = test system: CHiPS2 (iPS) derived pancreatic endoderm cells; experiment: NGN3/NKX2.2 double positive cells by imaging, small molecule combinations, CHiPS2 (iPS); conditions: Method of example 2 + 2.5 μM DAPT
Procedure: as §1

[4] = 0.1 μM added to method of example 2 for three days
[5] = 0.5 μM added to method of example 2 for three days
[6] = 1 μM added to method of example 2 for three days
[7] = 5 μM added to method of example 2 for three days
[8] = 10 μM added to method of example 2 for three days

## CCOc1nc(NC(=O)Cc2cc(OC)ccc2OC)cc(N)c1C#N [JNK VIII]
[1]; [4]
  % effect NGN3/NKX2.2 double positive cells: 160%
[1]; [5]
  % effect NGN3/NKX2.2 double positive cells: 156%
[1]; [6]
  % effect NGN3/NKX2.2 double positive cells: 204%
[1]; [7]
  % effect NGN3/NKX2.2 double positive cells: 315%
[1]; [8]
  % effect NGN3/NKX2.2 double positive cells: 308%

## C[C@H](NC(=O)Cc1cc(F)cc(F)c1)C(=O)N[C@H](C(=O)OC(C)(C)C)c1ccccc1 [DAPT]
[1]; [5]
  % effect NGN3/NKX2.2 double positive cells: 150%
[1]; 2.5 μM added to method of example 2 for three days
  % effect NGN3/NKX2.2 double positive cells: 350%
[1]; 25 μM added to method of example 2 for three days
  % effect NGN3/NKX2.2 double positive cells: 300%
[2]
  % effect NGN3/NKX2.2 double positive cells, SA121 (hES): 165%
[3]
  % effect NGN3/NKX2.2 double positive cells, CHiPS2 (iPS): 167%

## Cn1cc(/C=C2\C(=O)Nc3ccc(S(N)(=O)=O)cc32)c2ccccc21 [Syk inhibitor]
[1]; [6]
  % effect NGN3/NKX2.2 double positive cells: 157%

## COc1cc2ncnc(Nc3ccc(F)c(Cl)c3)c2cc1OCCCN1CCOCC1 [Gefitinib]
[1]; [4]
  % effect NGN3/NKX2.2 double positive cells: 222%
[1]; [6]
  % effect NGN3/NKX2.2 double positive cells: 311%
[1]; [7]
  % effect NGN3/NKX2.2 double positive cells: 325%

## CC(C)CC(NC(=O)C(Cc1ccccc1)CC(O)C(Cc1ccccc1)NC(=O)OC(C)(C)C)C(=O)NC(Cc1ccccc1)C(N)=O (stereo not shown) [L6]
[1]; 50 μM added to method of example 2 for three days
  % effect NGN3/NKX2.2 double positive cells: 150%

## C[C@H](NC(=O)Cc1cc(F)cc(F)c1)C(=O)N[C@@H]1C(=O)N(C)c2ccccc2-c2ccccc21 [CompE]
[1]; 5 nM added to method of example 2 for three days
  % effect NGN3/NKX2.2 double positive cells: 250%
[1]; 50 nM added to method of example 2 for three days
  % effect NGN3/NKX2.2 double positive cells: 325%
[1]; 500 nM added to method of example 2 for three days
  % effect NGN3/NKX2.2 double positive cells: 395%

## COc1cccc(-c2cc(=O)c3ccccc3o2)c1N [PD98059]
[1]; [6]
  % effect NGN3/NKX2.2 double positive cells: 165%

## O=C(c1ccccc1)c1ccc(N2CCOCC2)cc1O [DNA-PK inhibitor V]
[1]; [7]
  % effect NGN3/NKX2.2 double positive cells: 370%

## CSc1nc(-c2ccc(F)cc2)c(-c2ccnc(NC(C)c3ccccc3)c2)[nH]1 (stereo not shown) [p38 inhibitor III]
[1]; [7]
  % effect NGN3/NKX2.2 double positive cells: 191%
[1]; [8]
  % effect NGN3/NKX2.2 double positive cells: 153%

## CN(C)c1ccc(/C=C2/C(=O)Nc3ccccc32)cc1 [DMBI, (Z)-3-[4-(Dimethylamino)benzylidenyl]indolin-2-one]
[1]; [7]
  % effect NGN3/NKX2.2 double positive cells: 167%
[1]; [8]
  % effect NGN3/NKX2.2 double positive cells: 231%

## Cn1cnc2cc3c(Nc4cccc(Br)c4)ncnc3cc21 [BPIQ-I]
[1]; [8]
  % effect NGN3/NKX2.2 double positive cells: 350%

## Cc1cccc(-c2nc(C(C)(C)C)[nH]c2-c2ccc3c(c2)OCO3)n1.Cl [TGFbRI inhibitor III]
[1]; [7]
  % effect NGN3/NKX2.2 double positive cells: 182%

## c1ccc2c(-c3ccncc3)c[nH]c2c1 [Rockout]
[1]; [7]
  % effect NGN3/NKX2.2 double positive cells: 208%
[1]; [8]
  % effect NGN3/NKX2.2 double positive cells: 199%

## CCC(=O)Nc1ccc2ncnc(Nc3cccc(Br)c3)c2c1 [PD174265]
[1]; [6]
  % effect NGN3/NKX2.2 double positive cells: 240%
[1]; [7]
  % effect NGN3/NKX2.2 double positive cells: 374%
[1]; [8]
  % effect NGN3/NKX2.2 double positive cells: 274%
